Measurements from patent US6287827A, “Halo- or hydroxy-substituted nocathiacin antibiotics” (Bristol-Myers Squibb Company, priority 2000, dated 2001).
≈ marks a conversion by molar mass, not a printed value.

Assays:
Test in all cases: MIC, conventional serial broth dilution assay in nutrient broth (Difco)
Assay type in all cases: cell-based
[1] = tested on: Streptococcus pneumoniae A9585
[2] = tested on: Streptococcus pneumoniae/penicillin intermediate A27881
[3] = tested on: Streptococcus pneumoniae/penicillin resistant A28272
[4] = tested on: Enterococcus faecalis A20688
[5] = tested on: Enterococcus faecalis A27519
[6] = tested on: Enterococcus faecium A24885
[7] = tested on: Enterococcus avium A27456
[8] = tested on: Staphylococcus aureus/β-lactamase positive A15090
[9] = tested on: Staphylococcus aureus/QC/ATCC #29213 A24407; settings: ATCC29213
[10] = tested on: Staphylococcus aureus/homo methicillin resistant A27223
[11] = tested on: Staphylococcus epidermidis A24548
[12] = tested on: Staphylococcus haemolyticus A27298
[13] = tested on: Moraxella catarrhalis/β-lactamase positive A22344
[14] = tested on: Moraxella catarrhalis/β-lactamase positive A25409
[15] = tested on: Haemophilus influenzae/β-lactamase negative A20191
[16] = tested on: Haemophilus influenzae/β-lactamase positive A21515
[17] = tested on: Staphylococcus aureus/209P/ATCC #6538P A9497
[18] = tested on: Staphylococcus aureus/Thiostrep. Res/Mutant A9497
[19] = tested on: Bacillus subtilis/ATCC #6633 A9506A; settings: ATCC6633
[20] = tested on: Bacillus subtilis/Thiostrep. Res/Mutant A9506A
[21] = A20688, Enterococcus faecalis A20688
[22] = A20688, Enterococcus faecalis A20688 +50% calf serum
[23] = Staphylococcus aureus A15090 + 50% calf serum
[24] = Staphylococcus aureus/β-lactamase positive A15090
[25] = Staphylococcus aureus A27223 + 50% calf serum
[26] = Staphylococcus aureus/homo methicillin resistant A27223

SMILES	MIC [1]	MIC [2]	MIC [3]	MIC [4, 21]	MIC [4, 22]	MIC [6]	MIC [8, 23]	MIC [8, 24]	MIC [9]	MIC [10, 25]	MIC [10, 26]	MIC [11]	MIC [12]	MIC [13]	also measured
C=C(NC(=O)c1csc(-c2nc3c(cc2O)-c2nc(cs2)C(=O)NC(C(C)O)C(=O)NC(=C(C)OC)c2nc(cs2)C(=O)NC2c4nc(cs4)C(=O)NC(COC(=O)c4c5c6c(c(F)ccc6n4O)COC(=O)C(OC4CC(C)(O)C(N(C)C)C(C)O4)C2OC5)c2nc-3cs2)n1)C(N)=O (stereo not shown) [5-Fluoronocathiacin, 5-fluoronocathiacin]	≤ 0.002 µg/mL	≤ 0.002 µg/mL	≤ 0.002 µg/mL	0.25 µg/mL (≈ 172 nM)	0.25 µg/mL (≈ 172 nM)	0.25 µg/mL (≈ 172 nM)	0.125 µg/mL	0.125 µg/mL (≈ 85.9 nM)	0.125 µg/mL (≈ 85.9 nM)	0.003 µg/mL	0.003 µg/mL (≈ 2.06 nM)	0.007 µg/mL (≈ 4.81 nM)	0.003 µg/mL (≈ 2.06 nM)	0.06 µg/mL (≈ 41.2 nM)	MIC [5]: 0.25 µg/mL (≈ 172 nM); MIC [7]: 0.25 µg/mL (≈ 172 nM); MIC [14]: 0.06 µg/mL (≈ 41.2 nM)
C=C(NC(=O)c1csc(-c2nc3c(cc2O)-c2nc(cs2)C(=O)NC(C(C)O)C(=O)NC(=C(C)OC)c2nc(cs2)C(=O)NC2c4nc(cs4)C(=O)NC(COC(=O)c4c5c6c(cc(F)cc6n4O)COC(=O)C(OC4CC(C)(O)C(N(C)C)C(C)O4)C2OC5)c2nc-3cs2)n1)C(N)=O (stereo not shown) [6-Fluoronocathiacin, 6-fluoronocathiacin]	< 0.0005 µg/mL	< 0.0005 µg/mL	< 0.0005 µg/mL	< 0.001 µg/mL	0.015 µg/mL (≈ 10.3 nM)	0.004 µg/mL (≈ 2.75 nM)	0.015 µg/mL	0.002 µg/mL (≈ 1.37 nM)	0.002 µg/mL (≈ 1.37 nM)	0.015 µg/mL	0.002 µg/mL (≈ 1.37 nM)	0.004 µg/mL (≈ 2.75 nM)	0.004 µg/mL (≈ 2.75 nM)	0.25 µg/mL (≈ 172 nM)	MIC [15]: > 16 µg/mL; MIC [16]: > 16 µg/mL; MIC [17]: 0.002 µg/mL (≈ 1.37 nM); MIC [18]: 16 µg/mL (≈ 11000 nM); MIC [19]: 0.002 µg/mL (≈ 1.37 nM); MIC [20]: > 32 µg/mL
